Values after ≈ are worked out from the molar mass of the structure shown.
Tests used:
HCT-116 [1] = assay: Antiproliferative activity against MTAP-deleted human HCT-116 cells assessed as effect on cell viability incubated for 6 days by Celltiter-Glo luminescent cell viability assay; type: functional, cell-based; details: HCT-116, 144 h
HCT-116 [2] = assay: Antiproliferative activity against human HCT-116 cells harboring wildtype MTAP assessed as effect on cell viability incubated for 6 days by Celltiter-Glo luminescent cell viability assay; type: functional, cell-based; details: HCT-116, 144 h
human MDR1 (P-gp) = assay: Efflux ratio of permeability across basolateral to apical side over apical to basolateral side in MDCK cells transfected with human MDR1 in absence of elacridar; details: dog
[3] = Protein binding in mouse plasma assessed as unbound fraction by ultracentrifugation; details: plasma
DOHH-2 = assay: Antiproliferative activity against human DOHH-2 cells assessed as effect on cell viability; type: functional, cell-based
[4] = Solubility of compound in SIF at pH 6.8
[5] = Solubility of compound in PBS buffer at pH 7.4
Cytochrome P450 2D6 = Cytochrome P450 2D6 (Homo sapiens, UniProt P10635); assay: Inhibition of CYP2D6 (unknown origin)
Sequence of Cytochrome P450 2D6 (P10635 whole entry): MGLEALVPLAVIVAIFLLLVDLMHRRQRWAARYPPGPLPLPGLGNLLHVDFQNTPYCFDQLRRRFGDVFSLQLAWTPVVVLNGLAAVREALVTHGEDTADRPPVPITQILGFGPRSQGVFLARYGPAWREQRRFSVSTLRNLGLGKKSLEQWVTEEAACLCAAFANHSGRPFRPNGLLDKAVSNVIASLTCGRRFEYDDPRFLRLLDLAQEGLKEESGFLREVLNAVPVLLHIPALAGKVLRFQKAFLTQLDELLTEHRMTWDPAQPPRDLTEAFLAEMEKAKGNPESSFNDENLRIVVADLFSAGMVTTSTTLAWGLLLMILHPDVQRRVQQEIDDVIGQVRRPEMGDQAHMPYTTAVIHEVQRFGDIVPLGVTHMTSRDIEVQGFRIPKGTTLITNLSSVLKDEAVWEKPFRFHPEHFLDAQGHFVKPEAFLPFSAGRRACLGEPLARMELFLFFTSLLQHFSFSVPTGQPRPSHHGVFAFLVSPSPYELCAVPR

Cytochrome P450 2C9 = Cytochrome P450 2C9 (Homo sapiens, UniProt P11712); assay: Inhibition of CYP2C9 (unknown origin)
Sequence of Cytochrome P450 2C9 (P11712 whole entry): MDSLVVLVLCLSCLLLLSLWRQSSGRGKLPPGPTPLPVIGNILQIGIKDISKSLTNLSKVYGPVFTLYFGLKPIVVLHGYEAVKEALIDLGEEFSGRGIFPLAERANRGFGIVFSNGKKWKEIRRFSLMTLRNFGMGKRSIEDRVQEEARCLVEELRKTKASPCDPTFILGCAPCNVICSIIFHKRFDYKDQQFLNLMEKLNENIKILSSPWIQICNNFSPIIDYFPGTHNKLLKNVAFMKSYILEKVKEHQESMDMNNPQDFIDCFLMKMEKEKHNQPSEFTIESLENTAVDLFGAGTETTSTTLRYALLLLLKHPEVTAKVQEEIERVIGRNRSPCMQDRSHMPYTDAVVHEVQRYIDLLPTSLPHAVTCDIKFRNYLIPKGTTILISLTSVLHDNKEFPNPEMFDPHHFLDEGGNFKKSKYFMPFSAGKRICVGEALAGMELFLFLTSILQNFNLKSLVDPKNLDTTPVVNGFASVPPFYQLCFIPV

[6] = Metabolic stability in rat liver microsomes assessed as intrinsic clearance; type: ADME, Microsome; details: time 40 min, read-out: CLH
[7] = Metabolic stability in rat hepatocytes assessed as intrinsic clearance measured per 10^6 cells; type: ADME, cell-based, Hepatocyte; details: read-out: CLH
[8] = Metabolic stability in mouse hepatocytes assessed as intrinsic clearance measured per 10^6 cells; type: ADME, cell-based, Hepatocyte; details: read-out: CLH
[9] = Protein binding in human plasma assessed as unbound fraction by ultracentrifugation
[10] = Toxicity in female rat up to 25 mg/kg, po administered as single dose for 14 days; type: organism-based; details: in vivo, 336 h, time 14 day
[11] = Efflux ratio in MDCK-II cells; details: dog
[12] = biological target: T1, Broad substrate specificity ATP-binding cassette transporter ABCG2 (Homo sapiens, UniProt Q9UNQ0); assay: Effect on BCRP (unknown origin)-mediated transport up to 10 uM
T1 sequence (Q9UNQ0 whole entry): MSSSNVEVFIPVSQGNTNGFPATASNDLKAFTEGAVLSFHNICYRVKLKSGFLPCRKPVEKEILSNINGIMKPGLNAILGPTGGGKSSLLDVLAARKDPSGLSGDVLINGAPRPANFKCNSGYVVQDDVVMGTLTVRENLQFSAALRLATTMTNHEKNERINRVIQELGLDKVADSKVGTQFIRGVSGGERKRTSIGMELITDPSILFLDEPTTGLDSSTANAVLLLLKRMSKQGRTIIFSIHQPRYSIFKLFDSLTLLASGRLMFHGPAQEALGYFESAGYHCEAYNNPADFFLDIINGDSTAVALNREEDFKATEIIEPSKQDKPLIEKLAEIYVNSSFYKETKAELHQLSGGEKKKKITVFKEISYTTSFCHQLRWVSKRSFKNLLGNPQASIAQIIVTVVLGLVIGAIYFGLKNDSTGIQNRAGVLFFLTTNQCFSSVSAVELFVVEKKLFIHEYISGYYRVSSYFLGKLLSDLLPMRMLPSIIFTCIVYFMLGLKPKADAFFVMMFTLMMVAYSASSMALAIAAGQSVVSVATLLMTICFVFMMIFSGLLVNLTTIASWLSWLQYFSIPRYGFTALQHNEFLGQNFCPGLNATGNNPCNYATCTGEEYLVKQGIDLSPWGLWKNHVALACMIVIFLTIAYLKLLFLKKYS

[13] = Unbound CSF-to-plasma concentration ratio in female Sprague-Dawley rat at 25 mg/kg, po administered as single dose; type: ADME, organism-based
[14] = Unbound brain-to-plasma concentration ratio in male Sprague-Dawley rat at 75 mg/kg, po administered as single dose; type: ADME, organism-based; details: read-out: K(p,uu,brain)
[15] = biological target: PRMT5/MEP50 complex (Homo sapiens) (UniProt O14744+Q9BQA1); assay: Inhibition of human PRMT5/MEP50 at 10 uM relative to control; type: protein-complex assay
[16] = biological target: Protein arginine N-methyltransferase 5 (Homo sapiens) (UniProt O14744); assay: In vivo inhibition of PRMT5 in athymic nude mouse xenografted with MTAP-deleted human HCT-116 cells assessed as decrease in SDMA level in tumor at 3 mg/kg, po administered once daily for 4 days and measured 4 hrs post last dose by ELISA relative to control; type: functional, organism-based; details: time 4.0 day
Sequence of Protein arginine N-methyltransferase 5 (Homo sapiens) (O14744 whole entry): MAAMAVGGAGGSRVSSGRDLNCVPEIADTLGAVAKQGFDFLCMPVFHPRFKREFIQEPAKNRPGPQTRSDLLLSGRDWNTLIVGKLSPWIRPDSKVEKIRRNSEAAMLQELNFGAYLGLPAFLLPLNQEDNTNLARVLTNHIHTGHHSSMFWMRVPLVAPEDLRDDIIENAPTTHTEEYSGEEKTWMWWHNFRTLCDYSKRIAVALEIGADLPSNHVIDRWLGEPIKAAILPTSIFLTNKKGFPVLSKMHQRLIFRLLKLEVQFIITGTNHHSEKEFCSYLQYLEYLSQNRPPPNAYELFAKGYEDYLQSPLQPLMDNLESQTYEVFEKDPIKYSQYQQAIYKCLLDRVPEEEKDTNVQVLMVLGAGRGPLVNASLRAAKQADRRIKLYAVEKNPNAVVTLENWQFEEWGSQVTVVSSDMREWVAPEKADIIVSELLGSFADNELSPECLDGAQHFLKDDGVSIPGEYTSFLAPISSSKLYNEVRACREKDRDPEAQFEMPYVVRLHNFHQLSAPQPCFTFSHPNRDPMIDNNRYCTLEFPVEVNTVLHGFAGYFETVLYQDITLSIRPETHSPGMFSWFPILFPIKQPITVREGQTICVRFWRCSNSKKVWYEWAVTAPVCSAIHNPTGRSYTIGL

HCT-116 [17] = assay: Antitumor activity against MTAP-deleted human HCT-116 cells xenografted in female athymic nude mouse model assessed as tumor growth inhibition at 3 mg/kg, po administered once daily for 14 days relative to control; type: functional; details: HCT-116, 336 h, time 14 day, read-out: TGI
HCT-116 [18] = assay: Antitumor activity against MTAP-deleted human HCT-116 cells xenografted in female athymic nude mouse model assessed as tumor growth inhibition at 10 mg/kg, po administered once daily for 14 days relative to control; type: functional; details: HCT-116, 336 h, time 14 day, read-out: TGI
HCT-116 [19] = assay: Antitumor activity against MTAP-deleted human HCT-116 cells xenografted in female athymic nude mouse model assessed as tumor growth inhibition at 30 mg/kg, po administered once daily for 14 days relative to control; type: functional; details: HCT-116, 336 h, time 14 day, read-out: TGI
HCT-116 [20] = assay: Antitumor activity against MTAP-deleted human HCT-116 cells xenografted in female athymic nude mouse model assessed as tumor growth inhibition at 100 mg/kg, po administered once daily for 14 days relative to control; type: functional; details: HCT-116, 336 h, time 14 day, read-out: TGI
[21] = Toxicity in female athymic nude mouse xenografted with MTAP-deleted human HCT-116 cells assessed as body weight change at 3 to 100 mg/kg, po administered once daily for 14 days; type: organism-based; details: in vivo, 336 h, dose 3-100 mg/kg, time 14 day
BXPC-3 = assay: Antitumor activity against MTAP-deleted human BXPC-3 cells xenografted in athymic nude mouse model assessed as tumor growth inhibition at 30 mg/kg, po administered once daily for 26 days and measured 24 hrs post last dose relative to control; type: functional; details: BXPC-3, 648 h, time 27 day, read-out: TGI
[22] = Antitumor activity against MTAP-deleted human U-87 MG cells xenografted in female athymic nude mouse model assessed as tumor growth inhibition at 10 mg/kg, po administered once daily for 14 days and measured 24 hrs post last dose relative to control; type: functional, U-87MG ATCC; details: 360 h, time 15 day, read-out: TGI
[23] = Antitumor activity against MTAP-deleted human U-87 MG cells xenografted in female athymic nude mouse model assessed as tumor growth inhibition at 30 mg/kg, po administered once daily for 14 days and measured 24 hrs post last dose relative to control; type: functional, U-87MG ATCC; details: 360 h, time 15 day, read-out: TGI
[24] = Toxicity in female athymic nude mouse xenografted with MTAP-deleted human U-87 MG cells assessed as effect on body weight at 10 to 100 mg/kg, po administered once daily for 14 days; type: organism-based; details: in vivo, 336 h, dose 10-100 mg/kg, time 14 day
CYP3A4 = CYP3A4 (Homo sapiens, UniProt P08684); assay: in vitro; details: human liver microsomes, probe midazolam
Sequence of CYP3A4 (P08684 whole entry): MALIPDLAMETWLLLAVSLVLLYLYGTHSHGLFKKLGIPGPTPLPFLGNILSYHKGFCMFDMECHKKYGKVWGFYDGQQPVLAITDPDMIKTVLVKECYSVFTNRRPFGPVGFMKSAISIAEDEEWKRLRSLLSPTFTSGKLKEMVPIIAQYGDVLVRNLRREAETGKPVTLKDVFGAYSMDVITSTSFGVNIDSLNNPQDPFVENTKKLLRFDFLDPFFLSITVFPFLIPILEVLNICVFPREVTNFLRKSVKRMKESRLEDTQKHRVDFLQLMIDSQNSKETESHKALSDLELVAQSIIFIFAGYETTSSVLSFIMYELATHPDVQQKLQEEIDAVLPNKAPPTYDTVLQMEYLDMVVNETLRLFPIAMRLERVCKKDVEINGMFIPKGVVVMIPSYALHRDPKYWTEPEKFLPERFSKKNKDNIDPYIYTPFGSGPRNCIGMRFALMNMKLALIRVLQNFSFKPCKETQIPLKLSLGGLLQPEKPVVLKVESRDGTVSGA

Nc1nc2cnc(C(=O)N3CCOC[C@@H]3c3ccc(C(F)(F)F)cc3)cc2c2c1COC2
IC50 (HCT-116 [1]): 0.102 µM
IC50 (HCT-116 [2]): 4.33 µM
efflux ratio (human MDR1 (P-gp)): 3
fraction unbound [3]: 0.07
IC50 (DOHH-2): 0.051 µM
solubility [4]: 335 µM (≈ 149 µg/mL)
solubility [5]: 257 µM (≈ 114 µg/mL)
IC50 (Cytochrome P450 2D6): 117 µM
IC50 (Cytochrome P450 2C9): 59 µM
microsomal CLint at 0.5 µM [6]: 123 µL/min/mg
hepatocyte CLint [7]: 31 µL/min/1e6 cells
hepatocyte CLint [8]: 13 µL/min/1e6 cells
fraction unbound [9]: 0.11
Activity [10]: Non-toxic
efflux ratio [11]: 3
Activity [12]: Not_active
Kp uu [13]: 0.2
Kp uu [14]: 0.15
inhibition [15]: 84%
inhibition [16]: 69%
inhibition in vivo at 3 mg/kg (HCT-116 [17]): 54%
inhibition in vivo at 10 mg/kg (HCT-116 [18]): 55%
inhibition in vivo at 30 mg/kg (HCT-116 [19]): 74%
inhibition in vivo at 100 mg/kg (HCT-116 [20]): 87%
Activity [21]: Non-toxic
inhibition in vivo at 30 mg/kg (BXPC-3): 61%
inhibition in vivo at 10 mg/kg [22]: 42%
inhibition in vivo at 30 mg/kg [23]: 57%
Activity [24]: Non-toxic
inhibition at 30 min, 10 µM (CYP3A4): < 20%
